# Data taken from ChEMBL document CHEMBL1201862, “PubChem BioAssay data set” (2004).
# Calls of active or inactive are those of the source.
# Columns and labels:
# Nonstructural protein 1 = Nonstructural protein 1 (Influenza A virus, UniProt Q194T2); assay type: functional, Influenza A virus (A/California/07/2009(H1N1))
# [1] = NIH-3T3 fibroblast cytotoxicity, dose response, cytotoxicity control, cell-based, fluorescence, Alamar Blue, secondary assay (AID 2327); assay type: functional;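 also: NIH-3T3 mouse fibroblasts cultured with fluconazole at 8 µg/mL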
# Beta-galactosidase = Beta-galactosidase (Escherichia coli, UniProt Q8VNN2); test: beta-galactosidase enzyme inhibitors and activators, dose response, artefact control for CCR6 antagonist project, biochemical, E. coli enzyme, set 3 (AID 504712); assay type: functional
# Sequence of Beta-galactosidase (Q8VNN2 whole entry): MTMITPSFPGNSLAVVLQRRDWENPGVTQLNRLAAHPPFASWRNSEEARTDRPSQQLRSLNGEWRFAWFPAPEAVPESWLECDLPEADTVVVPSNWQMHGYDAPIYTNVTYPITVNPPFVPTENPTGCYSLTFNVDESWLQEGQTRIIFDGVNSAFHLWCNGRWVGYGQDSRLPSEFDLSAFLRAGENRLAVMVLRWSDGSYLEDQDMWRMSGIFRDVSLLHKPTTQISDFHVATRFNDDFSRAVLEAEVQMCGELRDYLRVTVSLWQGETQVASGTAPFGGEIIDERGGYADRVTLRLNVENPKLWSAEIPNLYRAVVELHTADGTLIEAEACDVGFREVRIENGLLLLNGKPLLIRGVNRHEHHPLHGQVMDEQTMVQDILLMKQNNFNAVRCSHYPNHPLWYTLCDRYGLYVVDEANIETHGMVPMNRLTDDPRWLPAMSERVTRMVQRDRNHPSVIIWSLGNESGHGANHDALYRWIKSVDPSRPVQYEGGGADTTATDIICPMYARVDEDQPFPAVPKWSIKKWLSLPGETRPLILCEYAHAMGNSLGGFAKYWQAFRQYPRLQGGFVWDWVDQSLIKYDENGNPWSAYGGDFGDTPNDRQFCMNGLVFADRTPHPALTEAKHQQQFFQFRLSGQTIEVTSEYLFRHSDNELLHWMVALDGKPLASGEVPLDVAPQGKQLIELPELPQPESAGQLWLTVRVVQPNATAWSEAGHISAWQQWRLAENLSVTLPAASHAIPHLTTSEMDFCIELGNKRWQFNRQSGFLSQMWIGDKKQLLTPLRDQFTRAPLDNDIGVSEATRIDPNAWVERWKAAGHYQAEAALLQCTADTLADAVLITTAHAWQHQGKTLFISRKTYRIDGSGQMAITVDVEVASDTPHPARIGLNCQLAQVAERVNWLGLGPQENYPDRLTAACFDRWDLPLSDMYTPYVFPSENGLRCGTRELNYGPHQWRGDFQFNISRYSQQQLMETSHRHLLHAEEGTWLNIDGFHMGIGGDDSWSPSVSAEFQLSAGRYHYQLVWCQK
# [2] = C. albicans growth with fluconazole, confirmation, fluorescence, retest (AID 2467); assay type: functional, cell-based
# [3] = molecular target: T1, Mannose-6-phosphate isomerase (Homo sapiens, UniProt P34949); test: human PMI inhibitors, high substrate, primary screen, biochemical, fluorescence intensity, high mannose 6-phosphate (AID 1220)
# T1 sequence (P34949 whole entry): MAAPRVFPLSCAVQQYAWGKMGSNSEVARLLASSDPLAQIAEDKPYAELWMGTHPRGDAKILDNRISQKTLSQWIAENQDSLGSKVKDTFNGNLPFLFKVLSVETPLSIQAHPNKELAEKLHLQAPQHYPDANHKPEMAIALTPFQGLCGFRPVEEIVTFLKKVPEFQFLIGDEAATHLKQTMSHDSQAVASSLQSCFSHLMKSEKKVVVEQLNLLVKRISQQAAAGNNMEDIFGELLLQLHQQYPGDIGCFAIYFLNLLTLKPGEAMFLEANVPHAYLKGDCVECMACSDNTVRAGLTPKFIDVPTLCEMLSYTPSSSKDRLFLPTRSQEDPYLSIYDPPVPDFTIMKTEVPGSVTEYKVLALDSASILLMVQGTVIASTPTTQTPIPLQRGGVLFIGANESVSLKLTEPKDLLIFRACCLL
# [4] = molecular target: T1, Mannose-6-phosphate isomerase; test: inhibitors of human PMI, primary screen, biochemical, fluorescence intensity, coupled assay (AID 1209)
# [5] = molecular target: G-protein coupled receptor 35 (Homo sapiens, UniProt Q9HC97); test: SAR analysis of Antagonists of the GPR35 Receptor using an Image-Based Assay - Set 5. [Related pubchem assays (depositor defined):AID2058, AID2079]; assay type: functional
# Sequence of G-protein coupled receptor 35 (Q9HC97 whole entry): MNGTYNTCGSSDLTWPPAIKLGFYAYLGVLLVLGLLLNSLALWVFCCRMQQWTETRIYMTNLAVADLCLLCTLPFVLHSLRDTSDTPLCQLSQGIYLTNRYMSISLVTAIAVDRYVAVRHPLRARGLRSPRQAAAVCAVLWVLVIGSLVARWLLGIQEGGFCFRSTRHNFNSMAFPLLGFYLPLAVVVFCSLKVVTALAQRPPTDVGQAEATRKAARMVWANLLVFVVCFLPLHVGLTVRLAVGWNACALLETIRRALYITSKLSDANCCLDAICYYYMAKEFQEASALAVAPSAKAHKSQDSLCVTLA
# [6] = molecular target: G-protein coupled receptor 55 (Homo sapiens, UniProt Q9Y2T6); test: SAR Analysis of Selective Antagonists of GPR55 using an Image-Based Assay - Set 3. [Related pubchem assays (depositor defined):AID2058, AID2079]; assay type: functional
# Sequence of G-protein coupled receptor 55 (Q9Y2T6 whole entry): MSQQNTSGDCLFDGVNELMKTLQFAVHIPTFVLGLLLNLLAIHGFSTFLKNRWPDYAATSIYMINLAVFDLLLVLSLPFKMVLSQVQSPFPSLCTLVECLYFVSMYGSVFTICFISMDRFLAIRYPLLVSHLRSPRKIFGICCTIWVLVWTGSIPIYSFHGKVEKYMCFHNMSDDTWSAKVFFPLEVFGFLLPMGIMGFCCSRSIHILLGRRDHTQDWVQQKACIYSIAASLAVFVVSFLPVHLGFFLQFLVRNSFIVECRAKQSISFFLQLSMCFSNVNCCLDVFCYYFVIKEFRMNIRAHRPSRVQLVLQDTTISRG
# Hexokinase = Hexokinase (Trypanosoma brucei, UniProt Q38C41); test: Confirmation assay for inhibitors of Trypanosoma brucei hexokinase 1-Analogue-first series. [Related pubchem assays (depositor defined):AID1430, AID1632, AID2516, AID2560, AID2579, AID2600, AID449725, AID492951]; assay type: functional
# Sequence of Hexokinase (Q38C41 whole entry): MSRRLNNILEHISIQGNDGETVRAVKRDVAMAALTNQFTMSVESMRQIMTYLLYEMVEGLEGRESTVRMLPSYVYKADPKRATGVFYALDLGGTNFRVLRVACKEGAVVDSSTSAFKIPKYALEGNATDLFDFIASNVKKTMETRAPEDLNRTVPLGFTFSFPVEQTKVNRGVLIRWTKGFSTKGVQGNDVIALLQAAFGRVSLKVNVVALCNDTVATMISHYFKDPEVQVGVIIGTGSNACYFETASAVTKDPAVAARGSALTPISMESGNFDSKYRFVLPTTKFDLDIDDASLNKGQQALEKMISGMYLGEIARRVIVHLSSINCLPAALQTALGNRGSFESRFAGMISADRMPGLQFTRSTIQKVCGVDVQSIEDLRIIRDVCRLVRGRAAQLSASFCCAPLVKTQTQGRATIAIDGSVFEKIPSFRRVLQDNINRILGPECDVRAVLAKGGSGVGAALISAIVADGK
# BJ [7] = test: cytotoxicity toward BJ-TERT-LT-ST fibroblasts, dose response, cell-based, RAS-independent, luminescence (AID 1935); assay type: functional; settings: Homo sapiens;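 also: BJ fibroblasts immortalized with TERT plus LT and ST oncogenes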
# BJ [8] = test: cells; assay type: functional, cell-based; settings: Homo sapiens
# Saccharomyces cerevisiae = test: NALP1 inhibitor project selectivity study, Caspase-1/ASC signal blockade IC50 in S. cerevisiae (AID 488863); assay type: functional, organism-based
# [9] = cytotoxicity toward DRD oncogenic fibroblasts, dose response, cell-based, non-viral oncogenic, luminescence (AID 1934); assay type: functional; settings: Homo sapiens
# BJ [10] = test: cytotoxicity toward BJ-TERT fibroblasts, dose response, cell-based, RAS-independent, luminescence (AID 1933); assay type: functional; settings: Homo sapiens
# [11] = molecular target: NACHT, LRR and PYD domains-containing protein 1 (Homo sapiens, UniProt Q9C000); test: NALP1 inhibitors in yeast, dose response, luminescent (AID 488860); assay type: functional
# Sequence of NACHT, LRR and PYD domains-containing protein 1 (Q9C000 1-1212 limits assumed): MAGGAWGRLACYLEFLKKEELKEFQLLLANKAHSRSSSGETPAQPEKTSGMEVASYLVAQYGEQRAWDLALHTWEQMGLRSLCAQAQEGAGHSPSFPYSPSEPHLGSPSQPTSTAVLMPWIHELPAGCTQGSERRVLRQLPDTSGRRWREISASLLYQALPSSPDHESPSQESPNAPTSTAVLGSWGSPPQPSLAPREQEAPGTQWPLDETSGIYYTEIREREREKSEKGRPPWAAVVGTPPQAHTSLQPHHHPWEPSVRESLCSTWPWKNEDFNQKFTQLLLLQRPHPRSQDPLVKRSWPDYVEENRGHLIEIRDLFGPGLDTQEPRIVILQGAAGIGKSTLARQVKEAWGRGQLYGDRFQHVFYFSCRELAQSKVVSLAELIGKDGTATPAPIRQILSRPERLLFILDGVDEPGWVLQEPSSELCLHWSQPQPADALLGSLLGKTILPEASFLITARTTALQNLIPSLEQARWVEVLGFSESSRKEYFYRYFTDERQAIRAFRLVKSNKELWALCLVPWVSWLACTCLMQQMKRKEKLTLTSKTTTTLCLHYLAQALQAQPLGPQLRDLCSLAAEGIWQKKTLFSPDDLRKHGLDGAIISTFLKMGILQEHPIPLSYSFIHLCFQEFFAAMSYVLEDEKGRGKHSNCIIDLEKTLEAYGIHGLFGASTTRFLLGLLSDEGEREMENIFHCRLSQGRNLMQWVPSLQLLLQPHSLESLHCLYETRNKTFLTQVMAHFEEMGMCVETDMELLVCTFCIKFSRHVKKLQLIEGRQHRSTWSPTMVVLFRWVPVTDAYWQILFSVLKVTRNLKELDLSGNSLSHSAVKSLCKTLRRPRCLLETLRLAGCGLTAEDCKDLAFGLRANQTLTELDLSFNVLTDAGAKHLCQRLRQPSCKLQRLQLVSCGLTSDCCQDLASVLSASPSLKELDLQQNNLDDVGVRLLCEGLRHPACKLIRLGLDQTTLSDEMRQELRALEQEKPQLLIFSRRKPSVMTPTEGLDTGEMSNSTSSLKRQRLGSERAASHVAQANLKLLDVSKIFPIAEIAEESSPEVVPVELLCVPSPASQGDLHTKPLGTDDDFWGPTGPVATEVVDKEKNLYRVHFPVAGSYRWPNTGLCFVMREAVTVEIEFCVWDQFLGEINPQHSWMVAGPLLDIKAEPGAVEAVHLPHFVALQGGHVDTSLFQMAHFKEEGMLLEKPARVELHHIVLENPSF
# Sequence of NACHT, LRR and PYD domains-containing protein 1 (Q9C000 1213-1473 limits assumed): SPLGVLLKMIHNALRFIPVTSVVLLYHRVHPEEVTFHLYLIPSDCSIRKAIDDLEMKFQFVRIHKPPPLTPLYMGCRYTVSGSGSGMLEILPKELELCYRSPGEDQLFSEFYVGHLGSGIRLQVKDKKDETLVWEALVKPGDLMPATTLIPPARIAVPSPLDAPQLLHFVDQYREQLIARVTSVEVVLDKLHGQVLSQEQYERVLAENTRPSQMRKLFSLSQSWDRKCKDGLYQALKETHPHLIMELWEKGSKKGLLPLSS
# Sequence of Nonstructural protein 1 (Q194T2 whole entry): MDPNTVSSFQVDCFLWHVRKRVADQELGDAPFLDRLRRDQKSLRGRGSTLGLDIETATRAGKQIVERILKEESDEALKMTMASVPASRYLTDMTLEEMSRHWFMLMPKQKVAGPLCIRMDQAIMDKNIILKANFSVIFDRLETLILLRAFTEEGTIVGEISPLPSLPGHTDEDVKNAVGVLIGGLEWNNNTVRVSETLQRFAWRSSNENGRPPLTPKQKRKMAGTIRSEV
structure (smiles),measurement,setting,value
Cc1n[nH]c(=S)n(NC(=O)CC(=O)Nn2c(=S)[nH]nc(C)c2=O)c1=O,IC50,Nonstructural protein 1,6.42 µM (active)
same,EC50,[1],> 150 µM (inactive)
same,IC50,Beta-galactosidase,> 66.6 µM (inactive)
same,EC50,[2],4.66 µM (active)
same,IC50,[3],> 50 µM (not active)
same,IC50,[4],> 50 µM (not active)
COC(=O)c1cnn(-c2ccccc2)c1/C=N/NC(=S)Nc1ccccc1,IC50,[5],1.01 µM (active)
same,IC50,[6],15.1 µM (inactive)
O=C(O)c1ccc(Cl)cc1NC(=O)N1CCOCC1,IC50,Hexokinase,> 25 µM (inactive)
CCN1/C(=C/C=C/C=C/c2sc3ccccc3[n+]2CC)Sc2ccccc21 [DITHIAZANINE IODIDE],EC50,BJ [7],3 µM (inconclusive)
same,EC50,BJ [8],2.04 µM (inconclusive)
same,IC50,Saccharomyces cerevisiae,> 100 µM (inactive)
same,EC50,[9],1.68 µM (inconclusive)
same,EC50,BJ [10],1.7 µM (inconclusive)
same,IC50,[11],19.5 µM (active)
